Source: US12139520B2 (priority 2020, dated 2024)
Bridge positions count the residues as written; N and C are the ends. Square brackets hold non-standard residues; d marks the D form. Peptide text beside a SMILES is read from it. Hyp = O=C(O)[C@@H]1C[C@@H](O)CN1

Legend:
[1] = Physical stability of peptide analogues (Thioflavin T fibrillation); type: physicochemical; settings: maximum ThT signal normalized between hAMY maximum and buffer background; 40° C., shaking, four days; pH 7 per table title
In short: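 Peptides in 50 mM sodium acetate pH 4 or 50 mM sodium phosphate pH 7 were preincubated 1 h, mixed with 4 μM ThT, held at 40° C with 700 rpm shaking before each read. Fluorescence (ex 450/em 480 nm) every 10 min for four days; LOESS-smoothed maximum signal normalized in percent between hAMY and buffer.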

hAM1 receptor = hAM1 receptor (Homo sapiens, UniProt O60895+Q16602); test: cAMP assay for in vitro receptor activation, hAM1-R; type: cell-based; settings: cAMP assay, hAM1 receptor; read-out: hAM1R EC50
Sequence of hAM1 receptor (Q16602 23-461): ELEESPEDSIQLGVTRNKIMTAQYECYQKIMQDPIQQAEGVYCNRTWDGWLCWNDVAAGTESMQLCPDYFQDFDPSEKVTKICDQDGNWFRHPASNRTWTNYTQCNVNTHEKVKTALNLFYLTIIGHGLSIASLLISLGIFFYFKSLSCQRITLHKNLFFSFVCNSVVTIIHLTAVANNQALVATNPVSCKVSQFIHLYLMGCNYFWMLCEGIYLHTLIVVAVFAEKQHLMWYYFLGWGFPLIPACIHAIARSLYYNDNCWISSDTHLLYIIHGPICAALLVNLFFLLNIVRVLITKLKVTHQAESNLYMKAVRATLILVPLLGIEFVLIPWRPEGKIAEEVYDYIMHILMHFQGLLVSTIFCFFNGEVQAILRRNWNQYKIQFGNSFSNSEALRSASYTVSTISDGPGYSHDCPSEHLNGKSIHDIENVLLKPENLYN
Sequence of hAM1 receptor (O60895 43-175 partner): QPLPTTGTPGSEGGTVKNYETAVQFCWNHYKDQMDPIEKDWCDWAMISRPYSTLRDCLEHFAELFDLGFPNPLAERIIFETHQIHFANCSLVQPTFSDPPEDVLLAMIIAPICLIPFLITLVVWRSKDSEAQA
In short: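 Read-out is intracellular cAMP as a measure of receptor activation. Cells stably overexpressing hAM1 were subcloned to a monoclonal line, then thawed and seeded at 8000 cells/well in DPBS with 0.05% casein and the phosphodiesterase inhibitor IBMX at 0.5 mM.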

hAMY3 receptor = biological target: T1, hAMY3 receptor (Homo sapiens, UniProt O60896+P30988); test: cAMP assay for in vitro receptor activation, hAMY3-R; type: cell-based; settings: cAMP assay, hAMY3 receptor; read-out: hAMY3R EC50
T1 sequence (P30988 25-474): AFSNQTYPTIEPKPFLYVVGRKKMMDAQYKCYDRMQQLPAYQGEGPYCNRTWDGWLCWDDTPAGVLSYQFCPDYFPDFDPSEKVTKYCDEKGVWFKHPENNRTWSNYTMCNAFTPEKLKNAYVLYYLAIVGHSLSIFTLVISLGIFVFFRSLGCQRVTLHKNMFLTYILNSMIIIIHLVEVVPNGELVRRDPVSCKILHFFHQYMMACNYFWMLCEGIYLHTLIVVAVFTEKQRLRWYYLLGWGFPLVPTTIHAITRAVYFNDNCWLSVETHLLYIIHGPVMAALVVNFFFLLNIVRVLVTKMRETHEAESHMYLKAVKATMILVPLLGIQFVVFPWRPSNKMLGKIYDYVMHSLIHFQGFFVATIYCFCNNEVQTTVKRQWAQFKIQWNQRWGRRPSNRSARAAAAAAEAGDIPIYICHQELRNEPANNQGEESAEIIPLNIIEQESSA
T1 sequence (O60896 24-148 partner): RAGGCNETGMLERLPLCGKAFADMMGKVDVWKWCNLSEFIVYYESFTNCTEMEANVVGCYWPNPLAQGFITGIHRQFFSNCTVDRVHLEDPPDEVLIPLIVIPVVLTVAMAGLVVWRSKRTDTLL
In short: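 Monoclonal cell line stably overexpressing hAMY3 receptor, plated in DPBS with 0.05% casein and 0.5 mM IBMX, was stimulated with graded compound doses for 30 min at room temperature. cAMP accumulation was read by time-resolved FRET one hour after adding detection reagents.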

| Max ThT signal (%) [1] | EC50 (hAM1 receptor) | EC50 (hAMY3 receptor) | SMILES |
| --- | --- | --- | --- |
| 17.000% | > 5 µM | 0.012 nM | CC[C@H](C)[C@H](NC(=O)[C@H](CCC(N)=O)NC(=O)[C@H](Cc1c[nH]cn1)NC(=O)[C@H](C)NC(=O)[C@H](CC(C)C)NC(=O)[C@H](Cc1c[nH]c2ccccc12)NC(=O)[C@H](CCC(N)=O)NC(=O)[C@@H](NC(=O)[C@@H](NC(=O)[C@@H]1CSSC[C@H](NC(=O)[C@@H](N)CCCCN)C(=O)N[C@@H](CC(N)=O)C(=O)N[C@@H]([C@@H](C)O)C(=O)N[C@@H](C)C(=O)N[C@@H]([C@@H](C)O)C(=O)N1)[C@@H](C)O)C(C)C)C(=O)N[C@@H](Cc1ccc(O)cc1)C(=O)N[C@@H](CCC(N)=O)C(=O)N[C@@H](Cc1ccccc1)C(=O)N[C@H](C(=O)N[C@@H](CC(=O)O)C(=O)N[C@@H](CCCCN)C(=O)N[C@@H](CC(=O)O)C(=O)N[C@@H](CCCCN)C(=O)N[C@@H](CC(=O)O)C(=O)N[C@@H](CC(N)=O)C(=O)N[C@H](C(=O)N[C@@H](C)C(=O)N1CCC[C@H]1C(=O)N[C@@H](CCCNC(=N)N)C(=O)N[C@H](C(=O)N[C@@H](CCCCN)C(=O)N[C@H](C(=O)NCC(=O)N[C@@H](CO)C(=O)N[C@@H](CC(N)=O)C(=O)NCC(=O)N1C[C@H](O)C[C@H]1C(N)=O)C(C)C)[C@@H](C)O)C(C)C)[C@@H](C)O [compound 312] (H-KCNTATCTVQWLAHQIYQFTDKDKDNVAPRTKVGSNG[Hyp]-NH2; disulfide 2-7; N-terminus assumed) |
| 15.050% | > 5 µM | 0.004 nM | CC[C@H](C)[C@H](NC(=O)[C@H](CCC(N)=O)NC(=O)[C@H](Cc1c[nH]cn1)NC(=O)[C@H](C)NC(=O)[C@H](CC(C)C)NC(=O)[C@H](Cc1c[nH]c2ccccc12)NC(=O)[C@H](CCC(N)=O)NC(=O)[C@@H](NC(=O)[C@@H](NC(=O)[C@@H]1CSSC[C@H](NC(=O)[C@@H](N)CCCCN)C(=O)N[C@@H](CC(N)=O)C(=O)N[C@@H]([C@@H](C)O)C(=O)N[C@@H](C)C(=O)N[C@@H]([C@@H](C)O)C(=O)N1)[C@@H](C)O)C(C)C)C(=O)N[C@@H](Cc1ccc(O)cc1)C(=O)N[C@@H](CCC(N)=O)C(=O)N[C@@H](Cc1ccccc1)C(=O)N[C@@H](C)C(=O)N[C@@H](CC(=O)O)C(=O)N[C@@H](CCCCN)C(=O)N[C@@H](CC(=O)O)C(=O)N[C@@H](CCCCN)C(=O)N[C@@H](CC(=O)O)C(=O)N[C@@H](CC(N)=O)C(=O)N[C@H](C(=O)N[C@@H](C)C(=O)N1CCC[C@H]1C(=O)N1CCC[C@H]1C(=O)N[C@H](C(=O)N[C@@H](CC(N)=O)C(=O)N[C@H](C(=O)NCC(=O)N[C@@H](CO)C(=O)N[C@@H](CC(N)=O)C(=O)NCC(=O)N1C[C@H](O)C[C@H]1C(N)=O)C(C)C)[C@@H](C)O)C(C)C [compound 313] (H-KCNTATCTVQWLAHQIYQFADKDKDNVAPPTNVGSNG[Hyp]-NH2; disulfide 2-7; N-terminus assumed) |
| 11.900% | > 5 µM | 0.008 nM | CC[C@H](C)[C@H](NC(=O)[C@H](CCC(N)=O)NC(=O)[C@H](Cc1c[nH]cn1)NC(=O)[C@H](C)NC(=O)[C@H](CC(C)C)NC(=O)[C@H](Cc1c[nH]c2ccccc12)NC(=O)[C@H](CCC(N)=O)NC(=O)[C@@H](NC(=O)[C@@H](NC(=O)[C@@H]1CSSC[C@H](NC(=O)[C@@H](N)CCCCN)C(=O)N[C@@H](CC(N)=O)C(=O)N[C@@H]([C@@H](C)O)C(=O)N[C@@H](C)C(=O)N[C@@H]([C@@H](C)O)C(=O)N1)[C@@H](C)O)C(C)C)C(=O)N[C@@H](Cc1ccc(O)cc1)C(=O)N[C@@H](CCC(N)=O)C(=O)N[C@@H](Cc1ccccc1)C(=O)N[C@H](C(=O)N[C@@H](CC(=O)O)C(=O)N[C@@H](CCCCN)C(=O)N[C@@H](CC(=O)O)C(=O)N[C@@H](CCCCN)C(=O)N[C@@H](C)C(=O)N[C@@H](CC(N)=O)C(=O)N[C@H](C(=O)N[C@@H](C)C(=O)N1CCC[C@H]1C(=O)N1CCC[C@H]1C(=O)N[C@H](C(=O)N[C@@H](CC(N)=O)C(=O)N[C@H](C(=O)NCC(=O)N[C@@H](CO)C(=O)N[C@@H](CC(N)=O)C(=O)NCC(=O)N1C[C@H](O)C[C@H]1C(N)=O)C(C)C)[C@@H](C)O)C(C)C)[C@@H](C)O [compound 314] (H-KCNTATCTVQWLAHQIYQFTDKDKANVAPPTNVGSNG[Hyp]-NH2; disulfide 2-7; N-terminus assumed) |
| 17.150% | > 5 µM | 0.012 nM | CC[C@H](C)[C@H](NC(=O)[C@H](CCC(N)=O)NC(=O)[C@H](Cc1c[nH]cn1)NC(=O)[C@H](C)NC(=O)[C@H](CC(C)C)NC(=O)[C@H](Cc1c[nH]c2ccccc12)NC(=O)[C@H](CCC(N)=O)NC(=O)[C@@H](NC(=O)[C@@H](NC(=O)[C@@H]1CSSC[C@H](NC(=O)[C@@H](N)CCCCN)C(=O)N[C@@H](CC(N)=O)C(=O)N[C@@H]([C@@H](C)O)C(=O)N[C@@H](C)C(=O)N[C@@H]([C@@H](C)O)C(=O)N1)[C@@H](C)O)C(C)C)C(=O)N[C@@H](Cc1ccc(O)cc1)C(=O)N[C@@H](CCC(N)=O)C(=O)N[C@@H](Cc1ccccc1)C(=O)N[C@H](C(=O)N[C@@H](CC(=O)O)C(=O)N[C@@H](CCCCN)C(=O)N[C@@H](CC(=O)O)C(=O)N[C@@H](CCCCN)C(=O)N[C@@H](CC(=O)O)C(=O)N[C@@H](CC(N)=O)C(=O)N[C@@H](C)C(=O)N[C@@H](C)C(=O)N1CCC[C@H]1C(=O)N1CCC[C@H]1C(=O)N[C@H](C(=O)N[C@@H](CC(N)=O)C(=O)N[C@H](C(=O)NCC(=O)N[C@@H](CO)C(=O)N[C@@H](CC(N)=O)C(=O)NCC(=O)N1C[C@H](O)C[C@H]1C(N)=O)C(C)C)[C@@H](C)O)[C@@H](C)O [compound 315] (H-KCNTATCTVQWLAHQIYQFTDKDKDNAAPPTNVGSNG[Hyp]-NH2; disulfide 2-7; N-terminus assumed) |
| 20.450% | > 5 µM | 0.012 nM | CC[C@H](C)[C@H](NC(=O)[C@H](CCC(N)=O)NC(=O)[C@H](Cc1c[nH]cn1)NC(=O)[C@H](C)NC(=O)[C@H](CC(C)C)NC(=O)[C@H](Cc1c[nH]c2ccccc12)NC(=O)[C@H](CCC(N)=O)NC(=O)[C@@H](NC(=O)[C@@H](NC(=O)[C@@H]1CSSC[C@H](NC(=O)[C@@H](N)CCCCN)C(=O)N[C@@H](CC(N)=O)C(=O)N[C@@H]([C@@H](C)O)C(=O)N[C@@H](C)C(=O)N[C@@H]([C@@H](C)O)C(=O)N1)[C@@H](C)O)C(C)C)C(=O)N[C@@H](Cc1ccc(O)cc1)C(=O)N[C@@H](CCC(N)=O)C(=O)N[C@@H](Cc1ccccc1)C(=O)N[C@H](C(=O)N[C@@H](CC(=O)O)C(=O)N[C@@H](CCCCN)C(=O)N[C@@H](CC(=O)O)C(=O)N[C@@H](CCCCN)C(=O)N[C@@H](CC(=O)O)C(=O)N[C@@H](CC(N)=O)C(=O)N[C@H](C(=O)N[C@@H](C)C(=O)N1CCC[C@H]1C(=O)N[C@@H](C)C(=O)N[C@H](C(=O)N[C@@H](CC(N)=O)C(=O)N[C@H](C(=O)NCC(=O)N[C@@H](CO)C(=O)N[C@@H](CC(N)=O)C(=O)NCC(=O)N1C[C@H](O)C[C@H]1C(N)=O)C(C)C)[C@@H](C)O)C(C)C)[C@@H](C)O [compound 316] (H-KCNTATCTVQWLAHQIYQFTDKDKDNVAPATNVGSNG[Hyp]-NH2; disulfide 2-7) |
| 5.550% | > 5 µM | 0.004 nM | CC[C@H](C)[C@H](NC(=O)[C@H](CCC(N)=O)NC(=O)[C@H](Cc1c[nH]cn1)NC(=O)[C@H](C)NC(=O)[C@H](CC(C)C)NC(=O)[C@H](Cc1c[nH]c2ccccc12)NC(=O)[C@H](CCC(N)=O)NC(=O)[C@@H](NC(=O)[C@@H](NC(=O)[C@@H]1CSSC[C@H](NC(=O)[C@@H](N)CCCCN)C(=O)N[C@@H](CC(N)=O)C(=O)N[C@@H]([C@@H](C)O)C(=O)N[C@@H](C)C(=O)N[C@@H]([C@@H](C)O)C(=O)N1)[C@@H](C)O)C(C)C)C(=O)N[C@@H](Cc1ccc(O)cc1)C(=O)N[C@@H](CCC(N)=O)C(=O)N[C@@H](Cc1ccccc1)C(=O)N[C@H](C(=O)N[C@@H](CCCCN)C(=O)N[C@@H](CC(=O)O)C(=O)N[C@@H](CCCCN)C(=O)N[C@@H](CC(=O)O)C(=O)N[C@@H](CC(N)=O)C(=O)N[C@H](C(=O)N[C@@H](C)C(=O)N1CCC[C@H]1C(=O)N1CCC[C@H]1C(=O)N[C@H](C(=O)N[C@@H](CC(N)=O)C(=O)N[C@H](C(=O)NCC(=O)N[C@@H](CO)C(=O)N[C@@H](CC(N)=O)C(=O)NCC(=O)N1C[C@H](O)C[C@H]1C(N)=O)C(C)C)[C@@H](C)O)C(C)C)[C@@H](C)O [compound 317] (H-KCNTATCTVQWLAHQIYQFTKDKDNVAPPTNVGSNG[Hyp]-NH2; disulfide 2-7; N-terminus assumed) |
